According to PubChem BioAssay (NCI):
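GI50: concentration for 50% inhibition of growth. The concentration for full growth arrest is given as TGI.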

Assays:
Experiment in all cases: growth of human tumour cells (NCI), 384-well format
HCC-2998 colon = system: HCC-2998 colon
LOX IMVI melanoma = system: LOX IMVI melanoma
SNB-19 CNS = system: SNB-19 CNS
K-562 leukemia = system: K-562 leukemia
SK-OV-3 ovarian = system: SK-OV-3 ovarian
MCF7 breast = system: MCF7 breast
SW-620 colon = system: SW-620 colon
HT29 colon = system: HT29 colon
UO-31 renal = system: UO-31 renal
HOP-92 NSCLC = system: HOP-92 NSCLC
A498 renal = system: A498 renal
EKVX NSCLC = system: EKVX NSCLC
T-47D breast = system: T-47D breast

CC[C@H](NC(=O)[C@H](CS(=O)(=O)CC1CC1)N[C@@H](c1ccc(F)cc1)C(F)(F)F)C(=O)C(=O)NC1CC1
GI50 (HCC-2998 colon): > 100 µM
TGI (HCC-2998 colon): > 100 µM
GI50 (LOX IMVI melanoma): > 100 µM
TGI (LOX IMVI melanoma): > 100 µM
GI50 (SNB-19 CNS): > 100 µM
TGI (SNB-19 CNS): > 100 µM
GI50 (K-562 leukemia): > 93.1 µM
TGI (K-562 leukemia): > 100 µM
GI50 (SK-OV-3 ovarian): > 100 µM
TGI (SK-OV-3 ovarian): > 100 µM
GI50 (MCF7 breast): 97.5 µM
TGI (MCF7 breast): > 100 µM
GI50 (SW-620 colon): > 100 µM
TGI (SW-620 colon): > 100 µM
GI50 (HT29 colon): > 100 µM
TGI (HT29 colon): > 100 µM
GI50 (UO-31 renal): > 100 µM
TGI (UO-31 renal): > 100 µM
GI50 (HOP-92 NSCLC): > 100 µM
TGI (HOP-92 NSCLC): > 100 µM
GI50 (A498 renal): > 100 µM
TGI (A498 renal): > 100 µM
GI50 (EKVX NSCLC): 98.7 µM
TGI (EKVX NSCLC): > 100 µM
GI50 (T-47D breast): > 59.9 µM
TGI (T-47D breast): > 100 µM
